Data on one molecule can be found in patent US4201786A, “Water soluble pesticidal quaternary ammonium salt compounds” (Union Carbide Corporation, priority 1977, dated 1980).

The nature of data set [1]: Water solubility (Table I). It is filed as physicochemical. As to conditions: 25° C.
In data set [2] the test system is bean aphid (Aphis fabae Scop.). Briefly: Bean aphid foliage spray test. In kind it is in vivo. On the set-up: key: A: Excellent control; B: Partial control; C: No control. The settings on record: 500 ppm, 24 hour. How it is done: (§1) Suspensions of the test compounds were prepared by dissolving one gram of compound in 50 milliliters of acetone in which had been dissolved 0.1 gram (10 percent of the weight of compound) of an alkylphenoxy polyethoxyethanol surfactant, as an emulsifying or dispersing agent. The resulting solution was mixed into 150 milliliters of water to give roughly 200 milliliters of a suspension containing the compound in finely divided form. The thus-prepared stock suspension contained 0.5 percent by weight of test compound. The test concentrations in parts per million by weight employed in the tests described hereinbelow were obtained by appropriate dilutions of the stock suspension with water. The test procedures were as follows:
Adults and nymphal stages of the bean aphid (Aphis fabae Scop.) reared on potted dwarf nasturtium plants at 65°-70° F. and 50-70 percent relative humidity, constituted the test insects. For testing purposes, the number of aphids per pot was standardized to 100-150 by trimming plants containing excess aphids.
The test compounds were formulated by diluting the stock suspension with water to give a suspension containing 500 parts of test compound per million parts of final formulation.
The potted plants (one pot per compound tested) infested with 100-150 aphids, were placed on a revolving turntable and sprayed with 100-110 milliliters of test compound formulation by use of a DeVilbiss spray gun set at 40 psig. air pressure. This application, which lasted 25 seconds, was sufficient to wet the plants to run-off. As a control, 100-110 milliliters of a water-acetone-emulsifier solution containing no test compound were also sprayed on infested plants. After spraying, the pots were placed on their sides on a sheet of white standard mimeograph paper which had been previously ruled to facilitate counting. Temperature and humidity in the test room during the 24 hour holding period were 65°-70° F. and 50-70 percent, respectively. Aphids which fell onto the paper and were unable to remain standing after being uprighted were considered dead. Aphids remaining on the plants were observed closely for movement and those which were unable to move the length of the body upon stimulator by prodding were considered dead. Percent mortality was recorded for various concentration levels.
(§2) In these test the pesticidal activity of the compounds against aphid, mite, Southern Armyworm, Mexican Bean Beetle, and house fly was rated as follows: […]

Data set [3] deals with two-spotted mite (Tetranychus urticae Koch). Briefly: Mite foliage spray test. It is filed as in vivo. The arrangement: key: A: Excellent control; B: Partial control; C: No control. The settings on record: 500 ppm, six days. The procedure: as §1
Adults and nymphal stages of the two-spotted mite (Tetranychus urticae Koch), reared on Tendergreen bean plants at 80±5 percent relative humidity, were the test organisms. Infested leaves from a stock culture were placed on the primary leaves of two bean plants six to eight inches in height, growing in a two- and-a-half inch clay pot. 150-200 mites, a sufficient number for testing, transferred from the excised leaves to the fresh plants in a period of twenty-four hours. Following the twenty-four hour transfer period, the excised leaves were removed from the infested plants. The test compounds were formulated by diluting the stock suspension with water to give a suspension with water to give a suspension containing 500 parts of test compound per million parts of final formulation. The potted plants (one pot per compound) were placed on a revolving turntable and sprayed with 100-110 milliliters of test compound formulation by use of a DeVilbiss spray gun set at 40 psig. air pressure. This application, which lasted for 25 seconds was sufficient to wet the plants to run-off. As a control, 100-110 milliliters of a water solution containing acetone and emulsifier in the same concentrations as the test compound formulation, but containing no test compound, were also sprayed on infested plants. The sprayed plants were held at 80±5 percent relative humidity for six days, after which a mortality count of motile forms was made. Microscopic examination for motile forms was made on the leaves of the test plants. Any individual which was capable of locomotion upon prodding, was considered living.
as §2

Data set [4] concerns southern armyworm (Prodenia Eridania, (Cram.)). Description: Southern armyworm leaf spray test. In kind it is in vivo. The arrangement: key: A: Excellent control; B: Partial control; C: No control. As to conditions: 500 ppm, three days. The procedure: as §1
Larvae of the southern armyworm (Prodenia Eridania, (Cram.), reared on Tendergreen bean plants at a temperature of 80°±5° F. and relative humidity of 50±5 percent, constituted the test insects.
The test compounds were formulated by diluting the stock suspension with water to give a suspension containing 500 parts of test compound per million parts of final formulation. Potted Tendergreen bean plants of standard height and age were placed on a revolving turntable and sprayed with 100-110 milliliters of test compound formulation by use of a DeVilbiss spray gun set at 10 psig. air pressure.
This application which lasted 25 seconds was sufficient to wet plants to run-off. As a control, 100-110 milliliters of a water-acetone-emulsifier solution containing no test compound were also sprayed on infested plants. When dry, the paired leaves were separated and each one was placed in a 9 centimeter Petri dish lined with moistened filter paper. Five randomly selected larvae were introduced into each dish and the dishes were closed. The closed dishes were labeled and held at 80°-85° F. for three days. Although the larvae could easily consume the whole leaf within twenty-four hours, no more food was added. Larvae which were unable to move the length of the body, even upon stimulation by prodding, were considered dead. Percent mortality was recorded for various concentration levels.
as §2

In data set [5] the test system is Mexican bean beetle (Epilachna varivestis, Muls.). Briefly: Mexican bean beetle leaf spray test. The arrangement: key: A: Excellent control; B: Partial control; C: No control. As to conditions: 500 ppm, three days. In kind it is in vivo. The procedure:
as §1
Fourth instar larvae of the Mexican bean beetle (Epilachna varivestis, Muls.) reared on Tendergreen bean plants at a temperature of 80°±5° and 50±5 percent relative humidity, were the test insects.
The test compounds were formulated by diluting the stock suspension with water to give a suspension containing 500 parts of test compound per million parts of final formulation. Potted Tendergreen bean plants of standard height and age were placed on a revolving turntable and sprayed with 100-110 milliliters of test compound formulation by use of a DeVilbiss spray gun set at 10 psig air pressure. This application, which lasted 25 seconds was sufficient to wet plants to run-off. As a control, 100-110 milliliters of a water-acetone-emulsifier solution containing no test compound were also sprayed on infested plants. When dry, the paired leaves were separated and each was placed in a 9 centimeter Petri dish lined with moistened filter paper. Five randomly selected larvae were introduced into each dish, and the dishes were closed. The closed dishes were labeled and held at a temperature of 80°±5° F. for three days. Although the larvae could easily consume the leaf within 24 to 48 hours, no more food was added. Larvae which were unable to move the length of the body, even upon stimulation, were considered dead.
as §2

Data set [6] relates to house flies (Musca domestica, L.). Briefly: Fly bait test. As to conditions: 500 ppm, bait in 10 percent sugar solution, twenty four hours. On the set-up: key: A: Excellent control; B: Partial control; C: No control. In kind it is in vivo. The procedure: as §1
Four to six day old adult house flies (Musca domestica, L.) reared according to the specifications of the Chemical Specialties Manufacturing Association (Blue Book, McNair-Dorland Co., NY., 1954; pages 243-244, 261) under controlled conditions of 80°±5° F. and 50±5 percent relative humidity, were the test insects. The flies were immobilized by anesthetizing with carbon dioxide and twenty five immobilized individuals, males and females, were transferred to a cage consisting of a standard food strainer about five inches in diameter which was inverted over a wrapping-paper-covered surface. The test compounds were formulated by diluting the stock suspension with a 10 percent (by weight) sugar solution to give a suspension containing 500 parts of test compound per million parts of final formulation, by weight. Ten milliliters of the test formulation were added to a souffle cup containing a one inch square of an absorbent cotton pad. This bait cup was introduced and centered on the blotting paper under the food strainer prior to admitting the anesthetized flies. The caged flies were allowed to feed on the bait for twenty four hours, at a temperature of 80°±5° F. and the relative humidity of 50±5 percent.
as §2

What is called solubility is the concentration that dissolves in the medium under given conditions.

In turn, `CN(C(=O)C[N+]1(C)CCOCC1)C(=O)Oc1cccc2c1OC(C)(C)C2` registered a solubility in data set [1] of 140 mg/mL. The “Pesticidal activity, Aphid” value in data set [2] is reported as “A”. Further, in data set [3], the “Pesticidal activity, Mite” value is given as “B”. Moreover, in data set [4], the “Pesticidal activity, Southern Armyworm” value is given as “A”. Moreover, in data set [5], the “Pesticidal activity, Mexican Bean Beetle” value is recorded as “A”. Further, in data set [6], the “Pesticidal activity, Fly” value is reported as “A”.
